Reference: patent US11180484B2, “Pyrazole derivatives as plasma kallikrein inhibitors” (KALVISTA PHARMACEUTICALS LIMITED, priority 2016, dated 2021)

What was measured:
[1] = biological target: Human FXIa (Homo sapiens (Human), UniProt P03951); assay: Determination of the % inhibition / IC50 for FXIa; assay type: biochemical; details: for IC50: 25° C., substrate Z-Gly-Pro-Arg-AFC
Method: FXIa inhibitory activity in vitro was determined using standard published methods (see e.g. Johansen et al., Int. J. Tiss. Reac. 1986, 8, 185; Shori et al., Biochem. Pharmacol., 1992, 43, 1209; Sturzebecher et al., Biol. Chem. Hoppe-Seyler, 1992, 373, 1025). […]

[2] = Intrinsic clearance in rat liver microsomes; assay type: in vitro ADME; details: rat liver microsomes 0.5 mg/mL, 5 μM test compound, 37° C.; read-out: rat liver microsome (Clint μL/min/mg protein)
Method: (§1) Rat or human liver microsomes (0.5 mg/mL; Corning) were incubated with 5 μM test compound at 37° C. on a shaking platform (150 rpm). Samples were taken at 0, 6, 12, 18, 24 and 60 min and test compound concentrations were determined by LCMS against a calibration curve.

[3] = biological target: T1, Human plasma kallikrein (Homo sapiens (Human), UniProt P03952); assay: Determination of the IC50 for plasma kallikrein; assay type: biochemical; details: 25° C., substrate H-DPro-Phe-Arg-AFC; read-out: IC50 (human PKal)
T1 sequence (P03952 391-638): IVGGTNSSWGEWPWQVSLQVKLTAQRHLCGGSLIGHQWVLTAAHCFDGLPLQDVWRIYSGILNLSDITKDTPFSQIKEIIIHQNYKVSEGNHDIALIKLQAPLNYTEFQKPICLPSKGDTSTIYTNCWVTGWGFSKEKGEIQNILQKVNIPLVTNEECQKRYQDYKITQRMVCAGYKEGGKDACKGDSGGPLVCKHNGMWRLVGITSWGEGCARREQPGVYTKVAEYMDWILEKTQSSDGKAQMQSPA
T1 sequence (P03952 20-390): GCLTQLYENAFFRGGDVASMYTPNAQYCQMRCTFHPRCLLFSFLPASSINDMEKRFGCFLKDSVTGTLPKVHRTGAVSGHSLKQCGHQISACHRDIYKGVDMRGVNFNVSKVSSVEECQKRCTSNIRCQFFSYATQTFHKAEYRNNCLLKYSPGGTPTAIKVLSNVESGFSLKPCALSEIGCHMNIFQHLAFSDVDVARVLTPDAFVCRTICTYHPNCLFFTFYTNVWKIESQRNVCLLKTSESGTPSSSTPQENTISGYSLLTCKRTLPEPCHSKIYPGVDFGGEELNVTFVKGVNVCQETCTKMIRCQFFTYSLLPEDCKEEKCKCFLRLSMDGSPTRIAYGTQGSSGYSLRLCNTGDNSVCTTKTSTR
Method: (§2) Human plasma kallikrein (Protogen) was incubated at 25° C. with the fluorogenic substrate H-DPro-Phe-Arg-AFC and various concentrations of the test compound. Residual enzyme activity (initial rate of reaction) was determined by measuring the change in […] at 410 nm and the IC50 value for the test compound was determined.

[4] = biological target: Human Factor XIIa (Homo sapiens (Human), UniProt P00748); assay: Factor XIIa inhibitory activity in vitro; assay type: biochemical; details: 25° C., substrate H-DPro-Phe-Arg-AFC; read-out: IC50 (human FXIIa)
Human Factor XIIa, sequence (P00748 373-615): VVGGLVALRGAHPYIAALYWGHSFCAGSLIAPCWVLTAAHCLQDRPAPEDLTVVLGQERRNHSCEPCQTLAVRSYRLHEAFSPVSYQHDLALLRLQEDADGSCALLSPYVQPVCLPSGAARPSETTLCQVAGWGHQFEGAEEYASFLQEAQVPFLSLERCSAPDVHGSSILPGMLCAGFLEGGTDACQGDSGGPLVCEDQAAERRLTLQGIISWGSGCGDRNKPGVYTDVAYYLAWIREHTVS
Method: as §2, with “Factor XIIa (Enzyme Research Laboratories)” for “plasma kallikrein (Protogen)”

[5] = In vitro permeability, Caco-2 model for oral absorption; assay type: in vitro ADME; details: human, apical to basolateral, 50 μM test compound, 37° C.
Method: In vitro permeability was determined using the Caco-2 model for oral absorption. The methodology was adapted from standard published methods (Wang Z, Hop C. E., Leung K. H. and Pang J. (2000) J Mass Spectrom 35(1); 71-76). The Caco-2 monolayers were established in a Biocoat™ HTS fibrillar collagen 24 well multiwell insert system (1.0 μm, PET membrane, Corning 354803) in which 200,000 cells were seeded into each insert and maintained over 3 days before being utilised in the permeability assay. For the assay, 50 μM test compound is added to the apical side of the inserts and incubated for 1 hour at 37° C. on a shaking platform (120 rpm). Apical to basolateral transport was determined by measuring the test article in both compartments by LCMS following the 1 hour incubation. The integrity of the Caco-2 monolayers was confirmed by two methods, (i) comparison of pre- and post-experiment transepithelial electrical resistance (TEER) and, (ii) assessment of Lucifer Yellow flux.

[6] = Intrinsic clearance in human liver microsomes; assay type: in vitro ADME; details: human liver microsomes 0.5 mg/mL, 5 μM test compound, 37° C.; read-out: Human liver microsome (Clint μL/min/mg protein)
Method: as §1

[7] = Plasma protein binding (PPB), rapid equilibrium dialysis, human plasma; assay type: in vitro ADME; details: 5 μM test compound, dialysis 5 hrs at 37° C.
Method: The fraction unbound in plasma was determined using ThermoScientific™ Pierce™ Rapid Equilibrium Dialysis Technology (Single-Use plate with inserts, 8K MWCO). […] Reference samples from the non-dialysed plasma were taken before the incubation to enable an assessment of recovery. Test compound concentrations were determined in plasma and buffer compartments by LCMS against a calibration curve. […] Results are presented as percent plasma protein bound (% PPB).

[8] = Plasma protein binding (PPB), rapid equilibrium dialysis, rat plasma; assay type: in vitro ADME; details: 5 μM test compound, dialysis 5 hrs at 37° C.
Method: The fraction unbound in plasma was determined using ThermoScientific™ Pierce™ Rapid Equilibrium Dialysis Technology (Single-Use plate with inserts, 8K MWCO). 5 μM test compound was spiked into human or rat plasma (300 μL) and dialysed against 146.5 mM phosphate buffer (500 μL) for 5 hrs at 37° C., shaking at 1200 rpm. Reference samples from the non-dialysed plasma were taken before the incubation to enable an assessment of recovery. Test compound concentrations were determined in plasma and buffer compartments by LCMS against a calibration curve. The fraction unbound in plasma was determined using standard methodology (Waters N J et al (2008) J Pharm Sci 97(10); 4586-95). Results are presented as percent plasma protein bound (% PPB).

[9] = biological target: Human KLK1 (Homo sapiens (Human), UniProt P06870); assay: Determination of the IC50 for KLK1; assay type: biochemical; details: 25° C., substrate H-DVal-Leu-Arg-AFC
Human KLK1, sequence (P06870 25-262): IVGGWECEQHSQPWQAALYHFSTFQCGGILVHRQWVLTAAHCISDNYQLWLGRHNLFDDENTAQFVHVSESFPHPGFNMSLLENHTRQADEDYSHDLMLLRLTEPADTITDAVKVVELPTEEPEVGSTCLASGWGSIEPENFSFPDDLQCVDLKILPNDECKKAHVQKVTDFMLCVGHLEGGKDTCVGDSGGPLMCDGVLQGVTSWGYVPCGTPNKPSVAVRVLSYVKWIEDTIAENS
Method: as §2, with “KLK1 (Callbiochem)” for “plasma kallikrein (Protogen)”, “H-DVal-Leu-Arg-AFC” for “H-DPro-Phe-Arg-AFC”

[10] = Predicted plasma clearance (Clp), well-stirred model, human; assay type: in vitro ADME; details: percentage of hepatic blood flow
Method: (§3) The predicted plasma clearance (Clp) is calculated using the well-stirred model (Rowland M, Benet L Z, and Graham G G. Clearance concepts in pharmacokinetics. J Pharmacokinet Biopharm. (1973) 1:123-136.), one of several models that can be used to extrapolate the in vitro data. The model assumes instantaneous and complete mixing of drug within the liver and is a function of intrinsic clearance, hepatic blood flow and free fraction of drug in the blood. The predicted plasma clearance in mL/min/kg is presented as a percentage of hepatic blood flow (LBF).

[11] = Predicted plasma clearance (Clp), well-stirred model, rat; assay type: in vitro ADME; details: percentage of hepatic blood flow
Method: as §3

[12] = biological target: T1, Human plasma kallikrein; assay: Determination of the Ki for plasma kallikrein (mixed-model inhibition); assay type: biochemical; details: for Ki: human plasma kallikrein, mixed-model inhibition equation; for Alpha: parameter of the mixed-model equation indicating mechanism of inhibition
Method: Plasma kallikrein inhibitory activity in vitro was determined using standard published methods (e.g. Johansen et al., Int. J. Tiss. Reac. 1986, 8, 185; Shori et al., Biochem. Pharmacol., 1992, 43, 1209; Sturzebecher et al., Biol. Chem. Hoppe-Seyler, 1992, 373, 1025). […]. Residual enzyme activity (initial rate of reaction) was determined by measuring the change in fluorescence at 410 nm. The Ki value for the test compound was determined using the mixed-model inhibition equation (based on Equation 3.2 in: RA Copeland, Evaluation of Enzyme Inhibitors in Drug Discovery, Wiley 2005) in GraphPad Prism. The mixed model equation includes competitive, uncompetitive and noncompetitive inhibition as special cases and the parameter of Alpha to indicate mechanism of inhibition.

Human FXIa, sequence (P03951 388-625): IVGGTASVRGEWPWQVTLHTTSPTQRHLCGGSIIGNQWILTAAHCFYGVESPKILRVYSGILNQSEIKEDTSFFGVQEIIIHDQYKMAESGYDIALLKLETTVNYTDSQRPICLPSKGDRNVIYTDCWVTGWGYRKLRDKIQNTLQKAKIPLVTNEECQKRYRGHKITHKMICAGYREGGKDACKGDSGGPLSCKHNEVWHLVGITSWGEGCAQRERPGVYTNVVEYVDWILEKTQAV
Human FXIa, sequence (P03951 19-387): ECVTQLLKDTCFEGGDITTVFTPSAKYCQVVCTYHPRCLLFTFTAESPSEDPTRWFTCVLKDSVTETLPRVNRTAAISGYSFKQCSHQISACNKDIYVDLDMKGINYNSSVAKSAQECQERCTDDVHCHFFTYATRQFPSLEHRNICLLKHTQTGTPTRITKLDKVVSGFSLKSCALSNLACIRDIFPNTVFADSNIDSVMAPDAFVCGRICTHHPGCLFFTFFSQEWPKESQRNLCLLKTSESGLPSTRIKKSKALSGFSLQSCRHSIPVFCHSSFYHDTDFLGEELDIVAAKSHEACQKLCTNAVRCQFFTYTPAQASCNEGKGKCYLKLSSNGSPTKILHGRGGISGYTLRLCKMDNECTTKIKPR

SMILES	IC50 [1]	microsomal CLint at 5 μM [2]	IC50 [3]	IC50 [4]	Papp at 1 h, 50 μM [5]	microsomal CLint at 5 μM [6]	fraction unbound at 5 h, 5 μM [7]	fraction unbound at 5 h, 5 μM [8]	IC50 [9]	Predicted in vivo human Clp (% LBF) [10]	Predicted in vivo rat Clp (% LBF) [11]	Ki [12]	Alpha [12]	inhibition at 40 µM ([1]; 40 μM test compound, read-out: % Inhibition @ 40 μM (human FXIa))
O=C(NCc1c(F)cccc1-n1cnnn1)c1cn(Cc2ccc(Cn3ccccc3=O)cc2)nc1C(F)(F)F [Example 64, N-{[2-fluoro-6-(1,2,3,4-tetrazol-1-yl)phenyl]methyl}-1-({4-[(2-oxopyridin-1-yl)methyl]phenyl}methyl)-3-(trifluoromethyl)pyrazole-4-carboxamide]	> 40000 nM	94 µL/min/mg	0.6 nM	> 4000 nM	6 ×10⁻⁶ cm/s	35 µL/min/mg	0.08	0.09	> 4000 nM	19 % LBF	33 % LBF			
COCc1nn(Cc2ccc(Cn3cc(C)cn3)cc2)cc1C(=O)NCc1c(-n2cnnn2)ccc(OC)c1F [Example 60, N-{[2-fluoro-3-methoxy-6-(1,2,3,4-tetrazol-1-yl)phenyl]methyl}-3-(methoxymethyl)-1-({4-[(4-methylpyrazol-1-yl)methyl]phenyl}methyl)pyrazole-4-carboxamide]	4700 nM	114 µL/min/mg	0.9 nM	> 40000 nM	25 ×10⁻⁶ cm/s	90 µL/min/mg	0.09	0.03	> 40000 nM	35 % LBF	12 % LBF	0.3 nM	1.6	90%
COc1ccnc(CNC(=O)c2cn(Cc3ccc(Cn4ccccc4=O)cc3)nc2N)c1F [Example 5, 3-amino-N-[(3-fluoro-4-methoxypyridin-2-yl)methyl]-1-({4-[(2-oxopyridin-1-yl)methyl]phenyl}methyl)pyrazole-4-carboxamide]	> 40000 nM	6 µL/min/mg	2 nM	> 40000 nM	2 ×10⁻⁶ cm/s	3 µL/min/mg	0.23	0.36	> 40000 nM	3 % LBF	5 % LBF			
COCc1nn(Cc2ccc(Cn3cc(C)cn3)cc2)cc1C(=O)NCc1cc(OC)ccc1-n1cnnn1 [Example 61, N-{[5-methoxy-2-(1,2,3,4-tetrazol-1-yl)phenyl]methyl}-3-(methoxymethyl)-1-({4-[(4-methylpyrazol-1-yl)methyl]phenyl}methyl)pyrazole-4-carboxamide]	> 40000 nM	132 µL/min/mg	1.7 nM	> 4000 nM	22 ×10⁻⁶ cm/s	55 µL/min/mg	0.08	0.04	> 4000 nM	4 % LBF	15 % LBF			

Results, then the compound that gave them:

IC50 [1]	microsomal CLint at 5 μM [2]	IC50 [3]	IC50 [4]	Papp at 1 h, 50 μM [5]	microsomal CLint at 5 μM [6]	fraction unbound at 5 h, 5 μM [7]	fraction unbound at 5 h, 5 μM [8]	IC50 [9]	Predicted in vivo human Clp (% LBF) [10]	Predicted in vivo rat Clp (% LBF) [11]	Ki [12]	Alpha [12]	inhibition at 40 µM ([1]; 40 μM test compound, read-out: % Inhibition @ 40 μM (human FXIa))	SMILES
> 40000 nM	94 µL/min/mg	1.1 nM	> 40000 nM	12 ×10⁻⁶ cm/s	25 µL/min/mg	0.16	0.13	> 40000 nM	14 % LBF	26 % LBF	0.52 nM	108		COCc1nn(Cc2ccc(Cn3ccccc3=O)cc2)cc1C(=O)NCc1c(F)cccc1-n1cnnn1 [Reference Example H, N-{[2-Fluoro-6-(1,2,3,4-tetrazol-1-yl)phenyl]methyl}-3-(methoxymethyl)-1-({4-[(2-oxopyridin-1-yl)methyl]phenyl}methyl)pyrazole-4-carboxamide, reference compound]
> 40000 nM			> 40000 nM					> 10000 nM			6.7 nM	48		COc1cccc(CNC(=O)c2cn(Cc3ccc(Cn4ccccc4=O)cc3)nc2N)c1F [Reference Example B, 3-Amino-1-[4-(2-oxo-2H-pyridin-1-ylmethyl)-benzyl]-1H-pyrazole-4-carboxylic acid 2-fluoro-3-methoxy-benzylamide, reference compound]
4880 nM		8.3 nM	> 40000 nM					> 40000 nM			2.9 nM			COCc1nn(Cc2cnc(N3CCC(F)(F)C3)nc2)cc1C(=O)NCc1cc(OC)ccc1-n1cnnn1 [Example 88, 1-{[2-(3,3-difluoropyrrolidin-1-yl)pyrimidin-5-yl]methyl}-N-{[5-methoxy-2-(1,2,3,4-tetrazol-1-yl)phenyl]methyl}-3-(methoxymethyl)pyrazole-4-carboxamide]
230 nM		0.3 nM	> 40000 nM	23 ×10⁻⁶ cm/s				> 40000 nM			0.53 nM	2.24		COc1ccc(-n2cnnn2)c(CNC(=O)c2cn(Cc3ccc(N4CCCC4)nc3)nc2C(F)(F)F)c1F [Example 83, N-{[2-fluoro-3-methoxy-6-(1,2,3,4-tetrazol-1-yl)phenyl]methyl}-1-{[6-(pyrrolidin-1-yl)pyridin-3-yl]methyl}-3-(trifluoromethyl)pyrazole-4-carboxamide]
